Measured values: patent US10870635B2, “Compounds and their use as BACE1 inhibitors” (ALLGENESIS BIOTHERAPEUTICS, INC., priority 2015, dated 2020)

Each compound was assayed on Aβ38, Aβ40 and Aβ42 in CSF (assay: Efficacy study in monkeys: Aβ biomarkers in CSF after single oral administration). Settings: Monkey CSF.
Assay type: in vivo, cynomolgus monkeys
From the text: Certain isoforms of amyloid β peptide (AR), such as Aβ338, Aβ340 and Aβ342 have been established as relevant biomarkers that reflect BACE1 activity and have been exploited to establish translational relationships between different cellular assays and animal models. In this efficacy study, mammals were used to assess amyloid β reduction with BACE1 inhibitors. In a clinical setting, plasma and cerebrospinal fluid (CSF) are the accessible compartments to measure soluble amyloid β levels to determine target profile. It is important to analyze plasma and CSF levels which relate to changes in brain amyloid β levels. The concentration of BACE1 inhibitors and their time-dependent reduction of plasma, CSF and brain amyloid β levels were investigated following intravenous and oral administrations of BACE1 inhibitors.
a (ii). Formulation for PO administration: 5% (v/v) PEG400+95% (v/v) of 1% (w/v) methyl cellulose in water (the viscosity of methyl cellulose is 20 g/L, 20° C., cPa·s: 350.0-550.0). The test article solutions were prepared by dissolving the compound in PEG400 followed by the addition of the aqueous solution to the final volume.
For the oral formulation of a BACE1 inhibitor in the monkey efficacy study (at the dose of 20 mg/kg with the concentration of 2 mg/ml)
1) Weighed […] of the selected BACE1 inhibitors into a clean vial;
2) Added 2.826 mL of PEG400 into the tube containing the compound. Then vortexed for 5 min and sonicated for 45 min;
3) Added 53.688 mL of 1% MC in water into the tube containing the compound. Then vortexed for 4 min and sonicated for 4 min; and
4) Adjusted the pH to the physiological value by using 1N NaOH.
Several studies have shown that drug transport into the CNS may be more similar between humans and primates. […] To explore the mechanism of BACE1 compounds, the compounds were tested using this in vivo study. […] The monkey Aβ reduction study usually takes 3 weeks.
The time-course profiles of neurodegeneration biomarkers were determined following single oral administration of the selected BACE1 inhibitors to male cynomolgus monkeys. Blood samples were collected from all animals via the saphenous vein or cephalic vein at 0 (pre-dose), 0.5, 1, 3, 6, 8, 12 and 24 hr post-dose into test tubes containing potassium ethylenediaminotetraacetic acid (K2EDTA). CSF samples were collected via a pre-implanted cannula at the foramina occipital magnum site at 0 (pre-dose), 3, 6, 12 and 24 hr post-dose.
Plasma was separated from the blood by centrifugation at 4° C. and stored at −80° C. until analyzing. The biomarkers of Aβ38, Aβ40 and Aβ42 in CSF were quantified using Meso Scale Discovery (MSD) multiplex electrochemiluminescence immunoassay according to the manufacturer's instructions. The plates were first blocked with 150 μL of Diluent 35 for 1 hour at room temperature with constant shaking at 600 rpm. After washing three times with 200 μL washing buffer, 25 μL of 1× detection antibody solution, plus Aβ40 blocker, 25 μL of seven standards, zero standard and four-fold diluted samples were added to the assay plate. The plate was incubated for 2 hours at room temperature, with constant shaking at 600 rpm. Upon finishing, the plate was washed three times with washing buffer and read in a Sector Imager 6000 (MSD) immediately after addition of 150 μL of 2× Read Buffer T. Aβ concentrations were calculated with reference to the standard curves of each individual peptide and expressed as pg/mL using SoftMax Pro GXP 5.4.4.
`CC#Cc1cc2c(cc1F)sc1ccc([C@]3(C)CS(=O)(=O)C(C)(C)C(=N)N3)cc12` [Example 128, (R)-5-(7-Fluoro-8-(prop-1-yn-1-yl)dibenzo[b,d]thiophen-2-yl)-3-imino-2,2,5-trimethylthiomorpholine 1,1-dioxide] was tested, and the “% of maximum Aβ40 inhibition over 24 hours” value (from here on “% of maximum Aβ40 inhibition”) was 49.1%. In the case of `CC#Cc1ccc2sc3cc(F)c([C@]4(C)CC(=O)N(C)C(=N)N4)cc3c2c1` [Example 72, (S)-6-(3-Fluoro-8-(prop-1-yn-1-yl)dibenzo[b,d]thiophen-2-yl)-2-imino-3,6-dimethyltetrahydropyrimidin-4(1H)-one], the “% of maximum Aβ40 inhibition” value is reported as 33.7%. For `CC#Cc1ccc2sc3ccc([C@]4(C)CS(=O)(=O)C5(CC5)C(=N)N4)cc3c2c1` [Example 136, (R)-8-Imino-6-methyl-6-(8-(prop-1-yn-1-yl)dibenzo[b,d]thiophen-2-yl)-4-thia-7-azaspiro[2.5]octane 4,4-dioxide], the “% of maximum Aβ40 inhibition” value was 44.5%.

Each compound was assayed against BACE1 (recombinant β-secretase enzyme) (Homo sapiens (Human), UniProt P56817) (assay: AnaSpec BACE1 fluorescent assay (beta-secretase activity assay)). Settings: not given.
Sequence of BACE1 (recombinant β-secretase enzyme) (P56817 46-501): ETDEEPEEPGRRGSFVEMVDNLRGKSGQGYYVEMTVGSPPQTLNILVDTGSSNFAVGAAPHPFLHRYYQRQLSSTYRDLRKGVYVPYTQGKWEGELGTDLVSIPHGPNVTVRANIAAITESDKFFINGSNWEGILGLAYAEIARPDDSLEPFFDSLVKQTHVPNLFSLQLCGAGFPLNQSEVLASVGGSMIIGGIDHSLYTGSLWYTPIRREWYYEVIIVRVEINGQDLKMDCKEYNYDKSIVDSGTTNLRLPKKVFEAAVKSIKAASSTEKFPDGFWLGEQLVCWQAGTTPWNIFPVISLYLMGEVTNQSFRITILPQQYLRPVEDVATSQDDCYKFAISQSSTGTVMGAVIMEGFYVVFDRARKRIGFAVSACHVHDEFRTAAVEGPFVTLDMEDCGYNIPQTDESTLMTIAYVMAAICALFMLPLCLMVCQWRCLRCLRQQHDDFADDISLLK
Assay type: biochemical
Description: A BACE1 activity assay kit from AnaSpec (Fremont, Calif.) was used to determine the potency of the selected BACE1 inhibitors by AnaSpec BACE1 fluorescent assay. The recombinant β-secretase enzyme was diluted 1:200 in 1× assay buffer (1 part of 1× assay buffer and 1 part of TBS containing 0.1% Tween 20). The enzyme was added in a volume of 40 μl to each well of a black 96-well micro plate.
The BACE1 inhibitors were serially diluted into DMSO from their 10 mM stock concentrations in DMSO. The serially diluted inhibitors were diluted 1:100 into 1× assay buffer in a 96-well polypropylene plate (assay dilution plate). The final concentration of the BACE1 inhibitor tested was 300 nM, 100 nM, 30 nM, 10 nM, 3 nM, 1 nM 0.3 nM, and 0.00 nM. Dose responses for inhibitors were run in duplicate.
A volume of 10 μl of the inhibitor from the assay dilution plate, a control inhibitor LY2886721 or inhibitor vehicle was then added to each well of the black 96-well micro plate containing BACE1.
To each well of the black 96-well micro plate, 50 μl of the β-secretase substrate (Hylite Fluor 488) diluted 1:100 using assay buffer was added. The reagents were mixed gently and the assay plate was placed into a POLARstar fluorescent plate reader with excitation wavelength set at 485 nm and the emission wavelength set at 520 nm. The plate reader was set to take readings every 5 minutes for up to 30 minutes or a 30 minute endpoint reading was used.
An appropriate integrated first-order rate equation was used to fit the data accumulated over a 30-40 minute collection period.
With `CCN(CC)c1ccc2sc3ccc([C@]4(C)CC(=O)N(C)C(=N)N4)cc3c2c1` [Example 92, (S)-6-(8-(Diethylamino)dibenzo[b,d]thiophen-2-yl)-2-imino-3,6-dimethyl-tetrahydropyrimidin-4(1H)-one] the IC50 was > 0.3 µM. In the case of `CN1C(=N)N[C@](C)(c2ccc3sc4ccc(C#CCO)cc4c3c2)CC1=O` [Example 87, (S)-2-Amino-6-(8-(3-hydroxyprop-1-yn-1-yl)dibenzo[b,d]thiophen-2-yl)-3,6-dimethyl-5,6-dihydropyrimidin-4(3H)-one], the IC50 is reported as 0.017 µM. In the case of `CN1C(=N)N[C@](C)(c2ccc3sc4ccc(C#N)cc4c3c2)CC1=O` [Example 85, (S)-8-(2-Imino-1,4-dimethyl-6-oxohexahydropyrimidin-4-yl) dibenzo[b,d]thiophene-2-carbonitrile], the IC50 is reported as > 0.3 µM. With `CN1C(=N)N[C@](C)(c2ccc3sc4ccc(Br)cc4c3c2)CC1=O` [Example 88, (S)-6-(8-Bromodibenzo[b,d]thiophen-2-yl)-2-imino-3,6-dimethyltetrahydro-pyrimidin-4(1H)-one] the IC50 was > 0.3 µM. In the case of `CC#Cc1ccc2sc3ccc([C@]4(C)CN(C)C(=O)C(=N)N4)cc3c2c1` [Example 115, (R)-3-Imino-1,5-dimethyl-5-(8-(prop-1-yn-1-yl)dibenzo[b,d]thiophen-2-yl) piperazin-2-one], the IC50 is reported as > 0.3 µM. For `CC#Cc1ccc2sc3ccc([C@@]4(C)NC(=N)OCC4(F)F)cc3c2c1` [Example 100, (R)-5,5-Difluoro-4-methyl-4-(8-(prop-1-yn-1-yl)dibenzo[b,d]thiophen-2-yl)-1,3-oxazinan-2-imine], the IC50 was 0.202 µM. In the case of `CC#Cc1ccc2sc3ccc([C@]4(C5CC5)CC(=O)N(C)C(=N)N4)cc3c2c1` [Example 99, (R)-6-Cyclopropyl-2-imino-3-methyl-6-(8-(prop-1-yn-1-yl)dibenzo[b,d]thiophen-2-yl)tetrahydropyrimidin-4(1H)-one], the IC50 is reported as > 0.3 µM. With `CN1C(=N)N[C@](C)(c2ccc3sc4ccc(C(F)(F)F)cc4c3c2)CC1=O` [Example 94, (S)-2-Amino-3,6-dimethyl-6-(8-(trifluoromethyl)dibenzo[b,d]thiophen-2-yl)-5,6-di hydropyrimidin-4(3H)-one] the IC50 was 0.081 µM. Work on `CN1C(=N)N[C@](C)(c2ccc3sc4ccc(C5CC5)cc4c3c2)CC1=O` [Example 90, (S)-6-(8-Cyclopropyldibenzo[b,d]thiophen-2-yl)-2-imino-3,6-dimethyl-tetrahydropyrimidin-4(1H)-one] yielded an IC50 of 0.078 µM. With `CN1C(=N)N[C@](C)(c2ccc3sc4ccc(C(N)=O)cc4c3c2)CC1=O` [Example 91, (S)-8-(2-Imino-1,4-dimethyl-6-oxohexahydropyrimidin-4-yl)dibenzo [b,d]thiophene-2-carboxamide] the IC50 was > 0.3 µM. For `CC#Cc1ccc2c(c1)-c1cc([C@]3(C)CC(=O)N(C)C(=N)N3)ccc1S2(=O)=O` [Example 79, (S)-2-Amino-6-(5,5-dioxido-8-(prop-1-yn-1-yl)dibenzo[b,d]thiophen-2-yl)-3,6-dimethyl-5,6-dihydropyrimidin-4(3H)-one], the IC50 was 0.087 µM. With `CCCc1ccc2sc3ccc([C@]4(C)CC(=O)N(C)C(=N)N4)cc3c2c1` [Example 89, (S)-2-Imino-3,6-dimethyl-6-(8-propyl-dibenzo[b,d]thiophen-2-yl)tetrahydro-pyrimidin-4(1H)-one] the IC50 was > 0.3 µM. With `CC#Cc1ccc2c(c1)-c1cc([C@]3(C)CC(=O)N(C)C(=N)N3)ccc1C2(F)F` [Example 82, (S)-6-(9,9-Difluoro-6-(prop-1-yn-1-yl)-9H-fluoren-3-yl)-2-imino-3,6-dimethyltetrahydropyrimidin-4(1H)-one] the IC50 was > 0.3 µM. Compound `CC#Cc1ccc2sc3cc(F)c([C@]4(C)CC(=O)N(C)C(=N)N4)cc3c2c1` [Example 72, (S)-6-(3-Fluoro-8-(prop-1-yn-1-yl)dibenzo[b,d]thiophen-2-yl)-2-imino-3,6-dimethyltetrahydropyrimidin-4(1H)-one] has an IC50 of 0.021 µM. In the case of `CC#Cc1ccc2sc3ccc([C@]4(C)CC(=O)N(CC(F)F)C(=N)N4)cc3c2c1` [Example 105, (S)-3-(2,2-Difluoroethyl)-2-imino-6-methyl-6-(8-(prop-1-yn-1-yl)dibenzo [b,d]thiophen-2-yl)tetrahydropyrimidin-4(1H)-one], the IC50 is reported as > 0.3 µM. `CC#Cc1ccc2c(c1)-c1cc([C@]3(C)CC(=O)N(C)C(=N)N3)ccc1C2(C)C` [Example 81, (S)-6-(9,9-Dimethyl-6-(prop-1-yn-1-yl)-9H-fluoren-3-yl)-2-imino-3,6-dimethyl-tetrahydropyrimidin-4(1H)-one] was tested, and the IC50 was > 0.3 µM. `CC#Cc1ccc2c(c1)c1cc([C@]3(C)CC(=O)N(C)C(=N)N3)ccc1[s+]2[O-]` (stereo partly drawn) [Example 80, (6S)-2-Amino-3,6-dimethyl-6-(5-oxido-8-(prop-1-yn-1-yl)dibenzo[b,d]thiophen-2-yl)-5,6-dihydropyrimidin-4(3H)-one] showed an IC50 of 0.048 µM. With `CC#Cc1ccc2sc3ccc([C@]4(C)CS(=O)(=O)N(C)C(=N)N4)cc3c2c1` [Example 104, (R)-3-Imino-2,5-dimethyl-5-(8-(prop-1-yn-1-yl)dibenzo[b,d]thiophen-2-yl)-1,2,4-thiadiazinane 1,1-dioxide] the IC50 was > 0.3 µM. `CC#Cc1ccc2sc3ccc([C@]4(C)CC(=O)N(CCOC)C(=N)N4)cc3c2c1` [Example 106, (S)-2-Imino-3-(2-methoxyethyl)-6-methyl-6-(8-(prop-1-yn-1-yl)dibenzo[b,d]thiophen-2-yl)tetrahydropyrimidin-4(1H)-one] was tested, and the IC50 was > 0.3 µM. In the case of `COCC#Cc1ccc2sc3ccc([C@]4(C)CC(=O)N(C)C(=N)N4)cc3c2c1` [Example 86, (S)-2-Amino-6-(8-(3-methoxyprop-1-yn-1-yl)dibenzo[b,d]thiophen-2-yl)-3,6-dimethyl-5,6-dihydropyrimidin-4(3H)-one], the IC50 is reported as 0.218 µM.
